Results as given in patent US10414778B2, “Methods for treatment of resistant cancer” (New Mexico Tech University Research Park Corporation, priority 2016, dated 2019).
Where two headings read alike, the source gives them in different places. Each block holds one compound with its values, some of them ahead of it.

How the values were obtained:
MES-SA cells = assay: MTT growth inhibition, MES-SA uterine sarcoma; type: cell-based; settings: Homo sapiens; parent MES-SA cells at start of selection of doxorubicin-resistant cells; read-out: GI50 concentration
Experimental: (§1) Human cancer cell lines were obtained from the American Type Culture Collection (ATCC, Manassas, Va., USA), the European Collection of Cell Culture (ECACC, Salisbury, UK), and the Deutsche Sammlung von Mikroorganismen und Zellkulturen (DSMZ, Braunschweig, Germany). Human cervical adenocarcinoma HeLa cells were cultured in DMEM supplemented with 10% fetal bovine serum (FBS). Human mammary carcinoma MCF-7 cells were cultured in RPMI supplemented with 10% FBS. The U87 cells (ATCC HTB-14) were cultured in DMEM culture medium, while the A549 cells (DSMZ ACC107) were cultured in RPMI culture medium supplemented with 10% heat-inactivated FBS. The GBM Hs683 (ATCC HTB-138) and the T98G (ATCC CRL-1690) cell lines were cultivated in DMEM supplemented with 10% FBS. The GBM U251 cells (ECACC code 09063001) were cultured in 10% MEM. The human uterine sarcoma MES-SA and MES-SA/Dx5 cells were cultured in RPMI-1640 medium supplemented with 10% FBS with MES SA/Dx5 maintained in the presence of 500 nM Doxorubicin (Sigma™). The U373 glioblastoma cells (ECACC 08061901) were cultured in RPMI culture medium supplemented with 10% heat-inactivated FBS.
All compounds were dissolved in DMSO at a concentration of either 100 mM or 50 mM prior to cell treatment. The cells were trypsinized and seeded at various cell concentrations depending on the cell type. The cells were grown for 24 h to 72 h, treated with compounds at concentrations ranging from 0.001 to 100 μM, and incubated for 48, 72, or 96 h in 100 or 200 μL media depending on the cell line used. Cells treated with 0.1% DMSO were used as a negative control, and cells treated with 1 μM phenyl arsine oxide (PAO) were used as a positive control. […]
Drug-resistant cell lines (i.e., glioma: Hs683, U373, U251, U87, T98G; lung cancer: A549, H2073; uterine carcinoma: MES-SA/Dx5) were complemented with drug-sensitive cell lines, H1993 lung cancer and MES-SA uterine cancer, which were used as controls. […] The GI50 values were calculated after 48-96 hours of treatment with the indicated compounds in replicate using the MTT growth assay.

GBM 090909 cells = assay: MTT growth inhibition, primary GBM-derived neurosphere culture GBM 090909; type: cell-based; settings: Homo sapiens, Table 3, 48-96 h treatment, read-out: GI50 in vitro values, glioma GBM 090909
Experimental: (§2) Cell culture media were supplemented with 4 mM glutamine (Lonza code BE17-605E), 100 μg/mL gentamicin (Lonza code 17-5182), and penicillin-streptomycin (200 units/ml and 200 μg/ml) (Lonza code 17-602E). Primary GBM-derived neurosphere cultures from a patient undergoing surgical debulking were established using previously described methods. Briefly, resected tumor tissue was minced with a sterile scalpel and dissociated in 3 mL of neurobasal (NB) media containing 100 U/mL of collagenase (Life Technologies™) for 30 minutes at 37° C. Dissociated tissue was then vortexed and filtered using a sterile 70 um nylon Falcon™ cell strainer (Corning™). […]
(§3) Compound 4l was evaluated for in vitro growth inhibition against a panel of cancer cell lines, including U373, U251, U87, T98G, human GBM, and A549 NSCLC. […] Compound 4l was also evaluated for in vitro growth inhibition against the apoptosis-sensitive tumor model Hs683 anaplastic oligodendroglioma as a reference.

GBM 031810 cells = assay: MTT growth inhibition, primary GBM-derived neurosphere culture GBM 031810; type: cell-based; settings: Homo sapiens, Table 3, 48-96 h treatment, read-out: GI50 in vitro values, glioma GBM 031810
Experimental: as §2, §3

Hs683 cells = assay: MTT growth inhibition, Hs683 glioma; type: cell-based, human
Experimental: as §1
(§4) All compounds were dissolved in DMSO at a concentration of either 100 mM or 50 mM prior to cell treatment. The cells were trypsinized and seeded at various cell concentrations depending on the cell type. The cells were grown for 24 h to 72 h, treated with compounds at concentrations ranging from 0.001 to 100 μM, and incubated for 48, 72, or 96 h in 100 or 200 μL media depending on the cell line used. Cells treated with 0.1% DMSO were used as a negative control, and cells treated with 1 μM phenyl arsine oxide (PAO) were used as a positive control.
as §3
(§5) Due to their high potencies, compounds 5l and 5g were used to determine the effects of the compounds on drug-resistant tumor cells. Drug-resistant cell lines (i.e., glioma: Hs683, U373, U251, U87, T98G; lung cancer: A549, H2073; uterine carcinoma: MES-SA/Dx5) were complemented with drug-sensitive cell lines, H1993 lung cancer and MES-SA uterine cancer, which were used as controls. Bulbispermine and paclitaxel were also used as controls. The GI50 values were calculated after 48-96 hours of treatment with the indicated compounds in replicate using the MTT growth assay.

U373 glioblastoma cells = assay: MTT growth inhibition, U373 glioma; type: cell-based, human
Experimental: as §1, §4, §3, §5

U251 cells = assay: MTT growth inhibition, U251 glioma; type: cell-based, human
Experimental: as §1, §4, §3, §5

U87 cells = assay: MTT growth inhibition, U87 glioma; type: cell-based, human
Experimental: as §1, §4, §3, §5

T98G cells = assay: MTT growth inhibition, T98G glioma; type: cell-based, human
Experimental: as §1, §4, §3, §5

GI50 (MES-SA cells): 0.1 µM
Structure (SMILES): COc1cccc2c1C(=O)c1c(O)c3c(c(O)c1C2=O)C[C@@](O)(C(=O)CO)C[C@@H]3O[C@H]1C[C@H](N)[C@H](O)[C@H](C)O1 [DOX, doxorubicin, reference compound]

Structure (SMILES): Cn1nnc2c(C(N)=O)ncn2c1=O [TMZ, temozolomide, reference compound]
GI50 (GBM 090909 cells): 50 µM | GI50 (GBM 031810 cells): > 1000 µM

GI50 (Hs683 cells; Table 3, 48-96 h treatment, read-out: GI50 in vitro values, glioma Hs683): 27 µM | GI50 (Hs683 cells; Table 5, 48-96 hours of treatment, read-out: GI50, Glioma Hs683): 27 µM | GI50 (U373 glioblastoma cells; Table 3, 48-96 h treatment, read-out: GI50 in vitro values, glioma U373): 53 µM | GI50 (U373 glioblastoma cells; Table 5, 48-96 hours of treatment, read-out: GI50, Glioma U373): 53 µM | GI50 (U251 cells; Table 3, 48-96 h treatment, read-out: GI50 in vitro values, glioma U251): 41 µM | GI50 (U251 cells; Table 5, 48-96 hours of treatment, read-out: GI50, Glioma U251): 41 µM | GI50 (U87 cells; Table 3, 48-96 h treatment, read-out: GI50 in vitro values, glioma U87): 38 µM | GI50 (U87 cells; Table 5, 48-96 hours of treatment, read-out: GI50, Glioma U87): 38 µM | GI50 (T98G cells; Table 3, 48-96 h treatment, read-out: GI50 in vitro values, glioma T98G): 99 µM | GI50 (T98G cells; Table 5, 48-96 hours of treatment, read-out: GI50, Glioma T98G): 99 µM
Structure (SMILES): O[C@H]1C=C[C@@]23c4cc5c(cc4CN(C[C@@H]2O)[C@H]3C1)OCO5 [bulbispermine, reference compound]
